Columns and labels:
HIV-1 (strain IIIB) = test: Anti-HIV-1 (strain IIIB) activity in MT-4 cells, MTT assay; type: cell-based; conditions: protection of MT-4 cells against HIV-induced cytopathogenicity by 50%
Procedure: (§1) The anti-HIV-1 (strain IIIB) activity evaluation in MT-4 cells was conducted using an optimized MTT assay. The cell lines were obtained from the laboratory (Prof. Erik De Clercq, Rega Institute for Medical Research, KU Leuven, Herestraat 49, Leuven, Belgium). Compounds were serially diluted (5-fold increments, starting from 10× concentration) and dispensed into 96-well plates (25 µL/well) via an automated Biomek 3000 workstation (Beckman Instruments, Fullerton, CA, USA). Parallel experimental groups included virus-infected (50 µL HIV inoculum, 100–300 TCID50) and mock-infected controls (50 µL culture medium). MT-4 cells were centrifuged (220× g, 5 min), resuspended to 6 × 10⁵ cells/mL, and seeded (50 µL/well). After a 5-day incubation, cell viability was quantified by measuring mitochondrial dehydrogenase-mediated MTT-to-formazan conversion using dual-wavelength spectrophotometry (540 nm primary, 690 nm reference). The 50% cytotoxic concentration (CC50) was calculated from triplicate median absorbance values, representing the compound concentration reducing mock-infected cell viability by 50%.

MT-4 cells = test: Cytotoxicity in mock-infected MT-4 cells, MTT assay; type: cell-based
Procedure: as §1

SMILES	EC50 (HIV-1 (strain IIIB)) [µM]	CC50 (MT-4 cells) [µM]
Cc1ccnc2c1NC(=O)c1cccnc1N2C1CC1 [NVP, reference compound]	0.19	> 15
O=C1Nc2ccc(Cl)cc2[C@@](C#CC2CC2)(C(F)(F)F)O1 [EFV, reference compound]	0.003	> 4.59
